One experiment has as its system HCN4 channel. The settings on record: for Effect on channel gating: 200 nM.
The test system of experiment [1] is DmHCN (HCN channel of Drosophila melanogaster). The class given is cell-based.
A further experiment concerns HCN2 channel. The settings on record: for Effect on channel gating: 200 nM.
Another experiment concerns HCN1 channel. Put plainly: Two microelectrode voltage clamp (2MEV) of HCN1 and HCN1 mutants expressed in Xenopus oocytes. The format is cell-based, mouse. The following applies: for Effect on channel gating: wild type HCN1, 200 nM; for Effect on channel activation: HCN1-R538E, 30 μM, 60 minutes perfusion.
A further experiment deals with plant channel KAT1. The following applies: 200 nM 4βPMA.
Experiment [2] concerns DAG concentration in Xenopus oocytes. The settings on record: 60 minute incubation; cited from earlier work.
For experiment [3], the system named is HCN1 channel (wild type, CNBD-disabled and deletion constructs). Put plainly: Modulation of HCN1 activation gating by the PTK inhibitor genistein. The class given is cell-based, mouse. The method, then: (§1) The effect of PTK inhibitor genistein on HCN channel activation was studies using wild type and CNBD-disabled HCN channels. Recordings were made in the presence and absence of genistein.
(§2) Activation of wild type HCN channels and mutant HCN channels with mutation in the C-linker or CNBD domains was recorded in the presence and absence of PTK inhibitor genistein.
The results in FIG. 18B show the effect of genistein treatment to activation of HCN1-R538E, HCN1-ΔCNBD and HCN1-ΔCterm. Left Panel: Change in V1/2 (V1/2 Final−V1/2 Initial) in control and genistein treated cells (90 μM for 30 min).

The test system of experiment [4] is HCN2 channel (wild type and CNBD-disabled). The experiment is described as follows: Modulation of HCN2 activation gating by the PTK inhibitor genistein. The format is cell-based, mouse. The method, then: as §1, §2
The target of the next experiment is T1, HCN2-R591E channel (Mus musculus, UniProt O88703, R591E).
T1 construct: expressed in transfected cells; host or cells: Xenopus oocytes (cRNA injection); excised inside-out patches
T1 sequence (O88703 1-863 R591E): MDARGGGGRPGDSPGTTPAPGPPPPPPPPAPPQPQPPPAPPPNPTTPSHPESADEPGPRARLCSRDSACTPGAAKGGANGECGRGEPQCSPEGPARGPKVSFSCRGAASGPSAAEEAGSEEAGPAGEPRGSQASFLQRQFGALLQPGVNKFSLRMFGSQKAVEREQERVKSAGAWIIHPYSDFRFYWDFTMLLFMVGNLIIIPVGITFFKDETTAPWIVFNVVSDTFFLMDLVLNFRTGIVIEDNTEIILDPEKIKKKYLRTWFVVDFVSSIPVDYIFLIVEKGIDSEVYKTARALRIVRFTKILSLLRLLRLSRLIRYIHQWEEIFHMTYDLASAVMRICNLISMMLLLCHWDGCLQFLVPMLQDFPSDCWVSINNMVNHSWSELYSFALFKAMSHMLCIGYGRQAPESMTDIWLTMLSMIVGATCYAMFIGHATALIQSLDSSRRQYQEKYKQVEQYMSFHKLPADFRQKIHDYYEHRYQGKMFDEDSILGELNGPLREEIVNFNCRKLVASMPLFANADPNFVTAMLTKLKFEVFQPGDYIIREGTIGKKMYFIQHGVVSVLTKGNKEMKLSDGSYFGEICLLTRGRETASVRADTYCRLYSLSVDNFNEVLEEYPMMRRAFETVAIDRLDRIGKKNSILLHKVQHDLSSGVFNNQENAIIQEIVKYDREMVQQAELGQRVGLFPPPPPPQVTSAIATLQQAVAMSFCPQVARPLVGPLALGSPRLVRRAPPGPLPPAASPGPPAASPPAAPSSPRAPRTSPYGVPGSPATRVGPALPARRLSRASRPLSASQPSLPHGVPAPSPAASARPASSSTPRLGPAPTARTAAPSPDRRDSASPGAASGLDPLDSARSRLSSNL
The experiment is described as follows: Excised inside-out patch (IOP) clamp of HCN2-R591E after rundown, 4,5-PIP2 rescue. The format is biochemical. The method, then:
Molecular Biology. […] Electrophysiology-General. […] Electrophysiology-Excised cell-free inside-out patch clamp recordings. […] When cAMP was applied, NaCl was replaced with equivalent amount of cAMP. In experiments where 4,5-PIP2, kinase inhibitors or other compounds were included, stock solutions of the compounds dissolved in either DMSO or H2O were added to the recording solutions to an appropriate final concentration. […] It was routinely tested and confirmed that addition of the solvents alone was without effect. Analysis of electrophysiological recordings. […] An HCN2-[…] construct was expressed in Xenopus oocytes. 2 MEV-clamp recording was performed to measure the gating activity of the HCN2-[…] channel in the intact Xenopus oocytes. IOP-clamp was performed to measure the gating activity of the HCN2-[…] channel under a “rundown” condition. IOP-clamp was also performed in the presence of 4,5-PIP2 to detect the effect of 4,5-PIP2 on the gating activity of the HCN2-[…] channel under a “rundown” condition.

A further experiment has as its target T2, HCN1-ΔNvΔC channel (Mus musculus, UniProt O88704, A73M).
T2 construct: HCN1-ΔNvΔCterm (amino acid positions 73 to 390 of mHCN1); expressed in transfected cells; host or cells: Xenopus oocytes (cRNA injection); excised inside-out patches
T2 sequence (O88704 73-390 A73M): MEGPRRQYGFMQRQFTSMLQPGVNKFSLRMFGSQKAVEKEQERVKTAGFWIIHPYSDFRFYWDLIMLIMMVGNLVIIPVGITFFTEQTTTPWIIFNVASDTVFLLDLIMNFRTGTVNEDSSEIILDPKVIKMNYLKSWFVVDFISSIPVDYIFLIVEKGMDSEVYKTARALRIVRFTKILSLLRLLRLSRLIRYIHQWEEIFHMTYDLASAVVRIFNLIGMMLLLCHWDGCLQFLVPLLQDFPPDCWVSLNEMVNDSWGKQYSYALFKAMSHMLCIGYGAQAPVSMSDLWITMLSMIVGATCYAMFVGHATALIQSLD
Put plainly: Excised inside-out patch (IOP) clamp of HCN1-ΔNvΔC and basic-residue alanine mutants with 4,5-PIP2. The format is biochemical. The method, then:
Molecular Biology. […] Electrophysiology-General. […] Electrophysiology-Excised cell-free inside-out patch clamp recordings. […] When cAMP was applied, NaCl was replaced with equivalent amount of cAMP. In experiments where 4,5-PIP2, kinase inhibitors or other compounds were included, stock solutions of the compounds dissolved in either DMSO or H2O were added to the recording solutions to an appropriate final concentration. […] It was routinely tested and confirmed that addition of the solvents alone was without effect. Analysis of electrophysiological recordings. […] IOP-clamp was performed to measure the gating activity of the wild type and mutant channels under a “rundown” condition. […] The minimal 4,5-PIP2 responsive mouse HCN1 channel […] of mHCN1), were further mutated to produce the following constructs in which the basic amino acid residues Arginine, Lysine and Histidine are replaced […]), NT2 […], and […]), NT3 […], and […]), NT4 […], and […], and […], and […]), and […]). All individual point mutations were also constructed. The mutants were expressed in Xenopus oocytes. IOP clamp was performed with the mutant channels in the presence and absence of 5 μM 4,5-PIP2. […] Facilitation of HCN channel gating may be effected by direct interaction between 4,5-PIP2 and basic amino acid residues in the cytoplasmic region of the HCN channel. See hypothesis in the legend of FIG. 6.

As to `CCCCCCCCCCCCCC(=O)O[C@@H]1[C@@H](C)[C@@]2(O)[C@@H](C=C(CO)C[C@@]3(O)C(=O)C(C)=C[C@@H]23)[C@@H]2C(C)(C)[C@]12OC(C)=O` [4αPMA], the “Effect on channel gating” value (with HCN4 channel; in experiment [1]; in the experiment on HCN2 channel; in the experiment on HCN1 channel) was “unaffected” in each case.
With `CCCCCCCCCCCCCC(=O)O[C@@H]1[C@@H](C)[C@@]2(O)[C@@H](C=C(CO)C[C@]3(O)C(=O)C(C)=C[C@@H]23)[C@@H]2C(C)(C)[C@]12OC(C)=O` [4βPMA, 4-βphorbol-1 2myristate-13-acetate], the “Effect on channel gating” value (in the experiment with HCN4 channel; in experiment [1]; with HCN2 channel; in the experiment on HCN1 channel) was “facilitated” throughout. Moreover, the “ΔV½ WILD TYPE” value in the experiment on HCN4 channel (30 min in 200 nM 4βPMA) is “+17 ± 7”; in experiment [1] it was “+9 ± 4”; in the experiment with HCN2 channel (30 min in 200 nM 4βPMA), “+8 ± 2”; with HCN1 channel (HCN1, 30 min in 200 nM 4βPMA) it was “+15 ± 3”. Besides, in the experiment with plant channel KAT1, the “Effect on channel activation” value is “insensitive”. Besides, the “ΔV½ CA UNCOUPLED” value with HCN2 channel (30 min in 200 nM 4βPMA) is listed as “+15 ± 2”; in the experiment with HCN1 channel (HCN1, 30 min in 200 nM 4βPMA), “+29 ± 3”. In addition, the “ΔV½ CA UNCOUPLED H^+ UNCOUPLED” value in the experiment with HCN2 channel (30 min in 200 nM 4βPMA) was “+26 ± 3”; with HCN1 channel (HCN1, 30 min in 200 nM 4βPMA), “+32 ± 5”. The “4βPMA facilitation of gating in serine, threonine and tyrosine mutants” value in the experiment on HCN1 channel (mutants of HCN1-ΔNvΔC, 200 nM 4βPMA, 30 minutes) is “not affected”.
Take `Cc1nc2sccn2c(=O)c1CCN1CCC(=C(c2ccccc2)c2ccc(F)cc2)CC1` [R59022]: the “DAG concentration in Xenopus oocytes” value in experiment [2] is “double”. The “Effect on channel activation” value in the experiment with HCN1 channel is “facilitates”.
As to `O=c1c2ccccc2[nH]c(=S)n1CCN1CCC(=C(c2ccc(F)cc2)c2ccc(F)cc2)CC1` [R59949], the “DAG concentration in Xenopus oocytes” value in [2] is given as “double”. The “Effect on channel activation” value with HCN1 channel is listed as “facilitates”.
As for `O=c1c(-c2ccc(O)cc2)coc2cc(O)cc(O)c12` [genistein], the “Effect on activation curve” value in experiment [3] (HCN1-R538E (CNBD disabled)) is on record as “robust facilitation”; in experiment [3] (wild type HCN1), “weak facilitation”; in [4] (HCN2-R591E (CNBD disabled)) it was “facilitation”; in experiment [4] (wild type HCN2), “inhibition”. Further, in experiment [3] (HCN1-ΔCNBD, 90 μM for 30 min), the “Genistein facilitation, Δ(ΔV1/2), compared with HCN1-R538E” value is “the same”. The “Genistein sensitivity, Δ(ΔV1/2)” value in experiment [3] (HCN1-ΔCterm (C-linker deleted), 90 μM for 30 min) is “insensitive”. Further, the Genistein facilitation entry in [4] (cAMP insensitive HCN2 constructs) is given as “independent of the CNBD”.
As for “Phosphatidyl-inositol 4,5-bisphosphate [4,5-PIP2]”, the “Effect on gating activity under rundown condition” value on HCN2-R591E channel (IOP-clamp) is listed as “restore the gating activity”. Moreover, on HCN2-R591E channel (IOP-clamp after rundown), the “Effect on gating slope” value is recorded as “restores the more shallow gating slope” and the “Mean shift in V1/2 contributed by 4,5-PIP2 to intact cell gating” value is about 20 mV. The “Effect on gating of rundown channels” value at HCN1-ΔNvΔC channel (HCN1-ΔNvΔC, 5 uM 4,5-PIP2, 5 min) is recorded as “redepolarizes gating”. In addition, at HCN1-ΔNvΔC channel (mutants NT1, NT2 and NT3 of HCN1-ΔNvΔCterm, 5 μM 4,5-PIP2), the “Response to 4,5-PIP2 facilitation of channel gating” value is “reduced response”. Moreover, the “Response (difference in V1/2) to 4,5-PIP2 versus wild type” value at HCN1-ΔNvΔC channel (mutants R59A, S23-3A, R112A, S45-3A of HCN1-ΔNvΔC, 5 uM 4,5-PIP2) is “not different from wild type”.

The values are drawn from patent US20070025986A1, “Modulation of HCN channels by second messengers” (priority 2003, published 2007).
